Measured values published in paper PMC11996864, “A small-molecule inhibitor of BCL10-MALT1 interaction abrogates progression of diffuse large B cell lymphoma” (The Journal of Clinical Investigation, 2025).
Values joined by “and” are separate entries in the source; they are usually repeats but may differ in a detail not shown here. Equal values may be shown once.

Legend:
Assay type in all cases: cell-based, human
[1] = tested on: IL2 mRNA in Jurkat T cells; experiment: IL2 mRNA induction by PMA/Iono, qRT-PCR; details: for IL2 mRNA (normalized): Jurkat, + PMA/Iono; for PMA/Iono-induced IL2 gene expression: pretreatment 4 hours, result in words
Procedure: qRT-PCR. Jurkat T cells grown in serum free media for 4 hours with indicated inhibitors prior to stimulation with PMA/Ionomycin for 4 hours. […]
Total RNA extraction from the […]
Kit. RNA was transcribed into cDNA using High-Capacity cDNA Reverse Transcription Kit (Applied Biosystems, Cat# 4368814) according to manufacturer’s instructions. RT-PCR was performed using TaqMan Universal PCR Master Mix (Applied Biosystems, Cat# 4304437) and run on a StepOnePlus Real-Time PCR machine (Applied Biosystems). The following probes from ThermoFisher Scientific were used for qRT-PCR: IL2 TaqMan probe Hs00174114, IL6 TaqMan

[2] = tested on: RelB cleavage in Jurkat T cells; experiment: CD3/CD28-induced RelB cleavage, Western blot (MALT1 protease activity); details: for RelB cleavage in stimulated Jurkat T cells: result in words
Procedure: (§1) Western blot analysis of RelB and N4BP1 cleavage was used to test the effect of small molecules on MALT1 protease activity. To this end, 3 million Jurkat T cells were pretreated with compounds for 24 hours in serum-free media, and then 5 μM MG-132 was added for 1 hour before stimulation with CD3/CD28 (Stemcell Technologies, catalog 10971), and lysed in RIPA buffer (Millipore, catalog 20-188) with protease and phosphatase inhibitor cocktail (Pierce, catalog 78446). IKKα/β phosphorylation and IκBα phosphorylation were used as measures of MALT1 scaffolding activity, while ERK1/2 phosphorylation was used as a control. Two million Jurkat T cells were treated with 1 μM M1i-124, 1 μM M1i-124d1, or DMSO in serum-free media for 16 hours, stimulated with CD3/CD28 for 0, 5, 10, or 20 minutes, and then immediately lysed in RIPA buffer with protease and phosphatase inhibitors. For experiments evaluating RelB cleavage and phosphorylation of IκBα in TMD8 cells, cells were treated with compounds for 24 hours in media containing 5% FBS. For RelB Western blot analysis, 5 μM MG-132 (Cell Signaling Technology, catalog 2194s) was added 4 hours before lysis in RIPA lysis buffer with protease/phosphatase inhibitors.

OCI-Ly3 cells = experiment: Cell proliferation, trypan blue cell count; details: Mepazine at 1 µM
OCI-Ly1 cells = experiment: Cell proliferation, trypan blue cell count; details: for OCI-Ly1 Viable Cells: Mepazine at 1 µM; for expansion of culture (proliferation): OCI-Ly1, single 1 μM dose, 12 days, result in words
Description: (§2) Cell proliferation, viability, and apoptosis assays. Starting with ~20,000 DLBCL cells in 5% FBS
(§3) at day 0, cell number was counted using the trypan blue dye exclusion method with Vi-CELL cell

TMD8 cells = experiment: Cell proliferation, trypan blue cell count; details: for TMD8 Viable Cells: Mepazine at 1 µM; for expansion of culture (proliferation): TMD8, single 1 μM dose, 12 days, result in words
Description: as §2, §3

OCI-Ly7 cells = experiment: Cell proliferation, trypan blue cell count; details: for expansion of culture (proliferation): OCI-Ly7, single 1 μM dose, 12 days, result in words; for Viable cell count: second block headed OCI-Ly1, Day 0, Mepazine at 1 µM
Description: as §2, §3

[3] = tested on: IL-2 secretion from Jurkat T cells; experiment: Secreted IL-2 ELISA after PMA/Iono; details: for IL-2: PMA/Iono; for IL-2 secretion from Jurkat T cells: result in words
Procedure: Cytokine ELISAs. Cytokines in cell culture supernatants were measured 20-24h after treatment with 0, 0.01, 0.03, 0.1, 0.3, 1, or 3 µM of compounds using the following ELISA kits according to the manufacturer’s instructions: Human IL-2 ELISA (BioLegend Cat# 431804), Human IL-6 ELISA (BioLegend Cat# 430504), and Human IL-10 ELISA (BioLegend Cat# 430604). […]
Jurkat T cells were pretreated with specific doses of compounds for 8 hours in serum-free media, then stimulated with PMA/ionomycin for 16 hours prior to the collection of supernatants. […]

[4] = tested on: N4BP1 cleavage in Jurkat T cells; experiment: CD3/CD28-induced N4BP1 cleavage, Western blot (MALT1 protease activity); details: for N4BP1 cleavage in stimulated Jurkat T cells: result in words; for N4BP1 cleavage ratio: Jurkat T cells, 1 μM pretreatment, + CD3/CD28
Procedure: as §1

[5] = tested on: BCL10 and MALT1 protein in TMD8 cells; experiment: BCL10 and MALT1 protein levels, Western blot; details: 72 hours, result in words; for BCL10 and MALT1 protein levels: TMD8, 1 μM
Procedure: (§4) To test the possibility that M1i-124 destabilizes BCL10 and MALT1 within the cell as a consequence of disrupting BCL10-MALT1 interaction, we treated ABC-DLBCL cell lines (TMD8, OCI-Ly3) with M1i-124 for 72 hours and measured the cellular levels of the BCL10 and MALT1 proteins by Western blotting.
(§5) Figure 5 M1i-124 treatment leads to loss of BCL10 and MALT1 protein content in ABC-DLBCL cells. (A) Representative Western blots showing loss of BCL10 and MALT1 proteins, but not ERK1/2 protein, in TMD8 and OCI-Ly3 cells after 72 hours of treatment with 1 μM M1i-124. […] (B) Representative Western blots showing time-dependent loss of BCL10 and MALT1 in TMD8 cells treated with 1 μM M1i-124. (C) Representative Western blots showing dose-dependent loss of BCL10 and MALT1 proteins in TMD8 cells treated with […]. For A–C, band quantifications, normalized for GAPDH, are indicated below each blot. (D) Time-dependent change in BCL10 and MALT1 mRNA expression levels with 1 μM M1i-124 treatment in TMD8 cells. Statistical analysis was performed using unpaired t test between 0 hours and 72 hours (mean ± SEM; n = 3). *P < 0.05, ****P < 0.0001.

[6] = tested on: BCL10 and MALT1 protein in OCI-Ly3 cells; experiment: BCL10 and MALT1 protein levels, Western blot; details: OCI-Ly3, 1 μM, 72 hours, result in words
Procedure: as §4, §5

Row | SMILES | IL2 mRNA (normalized) ([1]; 1 μM) | PMA/Iono-induced IL2 gene expression [1] | RelB cleavage in stimulated Jurkat T cells [2] | OCI-Ly3 Viable Cells (OCI-Ly3 cells; Day 0) | OCI-Ly1 Viable Cells (OCI-Ly1 cells; Day 0) | expansion of culture (proliferation) (OCI-Ly1 cells) | TMD8 Viable Cells (TMD8 cells; Day 0) | expansion of culture (proliferation) (TMD8 cells) | expansion of culture (proliferation) (OCI-Ly7 cells) | Viable cell count (OCI-Ly7 cells) | IL-2 ([3]; Jurkat, 0.01uM) | IL-2 ([3]; Jurkat, 0.03uM) | IL-2 ([3]; Jurkat, 0.1uM) | IL-2 ([3]; Jurkat, 0.3uM) | IL-2 ([3]; Jurkat, 1uM) | IL-2 ([3]; Jurkat, 3uM) | IL-2 secretion from Jurkat T cells [3] | N4BP1 cleavage in stimulated Jurkat T cells [4] | BCL10 and MALT1 protein levels [5] | BCL10 and MALT1 protein levels [6] | further results
1 | O=S(=O)(NCc1ccc2c(c1)OCO2)c1ccc(Cc2ccc(S(=O)(=O)NCc3ccc4c(c3)OCO4)cc2)cc1 [M1i-124] | 0.1638 and 0.218 and 0.2454 | reduction in PMA/Iono–induced IL2 gene expression | suppressed the cleavage | 20000 | 40000 and 20000 | no effect on expansion | 20000 | significant reduction in the expansion | no effect on expansion | 20000 and 40000 | 670.787 pg/mL and 749.967 pg/mL and 766.89 pg/mL | 564.302 pg/mL and 507.452 pg/mL and 318.494 pg/mL | 327.873 pg/mL and 411.405 pg/mL and 266.705 pg/mL | 173.693 pg/mL and 247.879 pg/mL and 193.913 pg/mL | 222.117 pg/mL and 210.011 pg/mL and 120.037 pg/mL | 304.615 pg/mL and 288.86 pg/mL and 235.369 pg/mL | dose-dependent reduction in IL-2 secretion | suppressed the cleavage | potently induced the loss of both MALT1 and BCL10 proteins | potently induced the loss of both MALT1 and BCL10 proteins | OCI-Ly1 Viable Cells (OCI-Ly1 cells; Day 12): 590000 and 720000 and 910000 and 860000 and 880000 and 890000; IL-2 protein level (% of control) ([3]; PMA/Iono treated, Suppl Fig. 4A): 34.6066 % of control and 35.497 % of control and 25.5648 % of control; ERK1/2 protein levels ([5]; 1 μM): no change
2 | COc1ccc(CNS(=O)(=O)c2ccc(Cc3ccc(S(=O)(=O)NCc4ccc(OC)cc4)cc3)cc2)cc1 [M1i-124d1] | 0.5238 and 0.3763 and 0.462 | reduction in PMA/Iono–induced IL2 gene expression | suppressed the cleavage | 20000 | 40000 and 20000 | no effect on expansion | 20000 | significant reduction in the expansion | no effect on expansion | 20000 and 40000 | 893.077 pg/mL and 1049.97 pg/mL and 735.049 pg/mL | 736.84 pg/mL and 714.598 pg/mL and 588.162 pg/mL | 433.515 pg/mL and 416.061 pg/mL and 330.961 pg/mL | 349.469 pg/mL and 340.243 pg/mL and 270.034 pg/mL | 458.584 pg/mL and 443.361 pg/mL and 398.637 pg/mL | 550.731 pg/mL and 484.757 pg/mL and 435.445 pg/mL | dose-dependent reduction in IL-2 secretion | suppressed the cleavage | lesser effect | lesser effect | OCI-Ly3 Viable Cells (OCI-Ly3 cells; Day 12): 340000 and 290000 and 320000; N4BP1 cleavage ratio [4]: 0.7459 and 0.3808 and 0.4872 and 0.5302
3 | CN1CCCC(CN2c3ccccc3Sc3ccccc32)C1 (centres unmarked) [Mepazine, mepazine, reference compound] |  |  |  | 20000 | 40000 and 20000 |  | 20000 |  |  | 20000 |  |  |  |  |  |  |  |  | not observed | not observed | IL2 mRNA (normalized) ([1]; 5 μM): 0.1528 and 0.1464 and 0.1468; Cl-RelB/FL-RelB ratio ([2]; Jurkat T cells, 1 μM pretreatment, + CD3/CD28): 0.1288 and 0.1917 and 0.1562 and 0.1166; OCI-Ly1 Viable Cells (OCI-Ly1 cells; Day 7): 99000 and 98000 and 71000; OCI-Ly1 Viable Cells (OCI-Ly1 cells; Day 10): 280000 and 250000 and 290000; TMD8 Viable Cells (TMD8 cells; Day 12): 830000 and 460000 and 590000; activity at 1 µM ([3]; Homo sapiens, Jurkat, PMA/Iono treated, 1 uM, Suppl Fig. 4A, read-out: IL-2 protein level (% of control)): 67.8%; IL-2 protein level (% of control) ([3]; PMA/Iono treated, 1 uM, Suppl Fig. 4A): 72.9318 % of control and 62.9989 % of control; N4BP1 cleavage ratio [4]: 1.53 and 0.8223 and 0.868 and 0.8072
